Reference: patent US9890185B2, “Urea derivatives useful as kinase inhibitors” (Respivert Limited, priority 2013, dated 2018)

Experiments:
PBMCs [1] = test: IFN gamma release in CD3/CD28 stimulated PBMC cells (assay c); format: cell-based; settings: Homo sapiens, read-out: IC50 Values for Inhibition of Cytokine Release, PBMCs IFNγ
How it was run: (§1)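 Compound added to human PBMCs on anti-CD3/anti-CD28-coated wells (0.3 and 3 μg/mL respectively); 3-day culture. Sandwich ELISA of supernatant IL-2 or IFN gamma gives the read-out, with IC50 derived from the dose-response curve.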

[2] = target: p38 MAPKα isoform (MAPK14) (Homo sapiens (Human), UniProt Q16539); test: p38 MAPKα enzyme inhibition (FRET, Z-LYTE, Method 2); format: biochemical
How it was run: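 Z-LYTE FRET: p38 MAPKα (80 ng/mL for Method 1, 200 ng/mL for Method 2, pre-dilution) preincubated 2 hr RT with compound (4–0.004 μg/mL solutions), activity read via MAPKAP-K2 phosphorylation after 1 hr RT and 1 hr protease development. Coumarin/fluorescein ratio gives phosphorylation; % inhibition versus uninhibited control, IC50 from concentration-response curve.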

Syk = Syk (Homo sapiens (Human), UniProt P43405); test: Syk enzyme inhibition (FRET, Z-LYTE); format: biochemical
How it was run: (§2)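 c-Src (3000 ng/mL) or Syk (2000 ng/mL) stock was preincubated with compound (4–0.004 μg/mL stocks) for 2 hr at RT. FRET peptide (8 μM stock) and ATP (800 μM c-Src, 60 μM Syk, as added) were then added for 1 hr, followed by 1 hr protease development. The coumarin/fluorescein emission ratio gave % inhibition and IC50.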

GSK 3α = GSK 3α (Homo sapiens (Human), UniProt P49840); test: GSK 3α enzyme inhibition (FRET, Z-LYTE, Method 2); format: biochemical; settings: read-out: IC50 Values for Enzyme Inhibition, GSK3α
How it was run: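 Recombinant human GSK3α was preincubated with compound (stocks 4, 0.4, 0.04 or 0.004 μg/mL) at RT, 2 hr for Method 1 and 105 min for Method 2. FRET peptide (8 μM stock) and ATP (40 μM stock) were added for 1 hr, then protease development for 1 hr. IC50 was taken from concentration–response curves.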

c-Src = c-Src (Homo sapiens (Human), UniProt P12931); test: c-Src enzyme inhibition (FRET, Z-LYTE); format: biochemical
How it was run: as §2

d-U937 cells = test: Accumulation of β catenin in d-U937 cells (assay m); format: cell-based, human; settings: percentage relative to Reference Compound at 1 μg/mL
How it was run: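 PMA-differentiated (100 ng/mL, 48–72 hr) human U937 macrophage-type cells treated with test compound or vehicle for 18 hr. β-catenin measured by in-cell ELISA (anti-β-catenin, HRP secondary, TMB, OD450–655). Signal corrected for cell number by dividing by crystal violet OD595.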

PBMCs [3] = test: IL-2 release in CD3/CD28 stimulated PBMC cells (assay c); format: cell-based; settings: Homo sapiens, read-out: IC50 Values for Inhibition of Cytokine Release, PBMCs IL-2
How it was run: as §1

Chain of GSK 3α (P49840 whole entry): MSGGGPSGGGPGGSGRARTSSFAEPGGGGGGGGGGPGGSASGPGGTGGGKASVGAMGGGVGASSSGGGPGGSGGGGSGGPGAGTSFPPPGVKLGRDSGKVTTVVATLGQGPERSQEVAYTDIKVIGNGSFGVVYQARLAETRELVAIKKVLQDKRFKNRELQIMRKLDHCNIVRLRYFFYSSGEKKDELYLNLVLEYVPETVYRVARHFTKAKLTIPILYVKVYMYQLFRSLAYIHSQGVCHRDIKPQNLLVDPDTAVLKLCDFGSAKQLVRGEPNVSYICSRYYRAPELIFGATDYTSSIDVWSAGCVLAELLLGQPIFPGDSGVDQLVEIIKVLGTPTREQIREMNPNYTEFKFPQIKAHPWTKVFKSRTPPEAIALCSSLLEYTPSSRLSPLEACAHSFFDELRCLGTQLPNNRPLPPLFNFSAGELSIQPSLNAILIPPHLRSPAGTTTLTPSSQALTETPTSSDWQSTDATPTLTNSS
Chain of p38 MAPKα isoform (MAPK14) (Q16539 whole entry, canonical isoform): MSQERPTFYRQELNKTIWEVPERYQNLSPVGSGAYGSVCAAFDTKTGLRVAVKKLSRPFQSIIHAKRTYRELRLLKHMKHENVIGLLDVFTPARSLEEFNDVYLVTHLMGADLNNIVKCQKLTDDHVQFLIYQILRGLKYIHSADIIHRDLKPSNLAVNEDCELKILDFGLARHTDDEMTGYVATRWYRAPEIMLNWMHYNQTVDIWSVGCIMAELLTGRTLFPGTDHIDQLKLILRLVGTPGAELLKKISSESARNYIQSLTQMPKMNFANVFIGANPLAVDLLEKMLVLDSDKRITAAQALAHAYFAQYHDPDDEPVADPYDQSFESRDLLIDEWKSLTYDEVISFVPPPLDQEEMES
Chain of c-Src (P12931 whole entry, looked up): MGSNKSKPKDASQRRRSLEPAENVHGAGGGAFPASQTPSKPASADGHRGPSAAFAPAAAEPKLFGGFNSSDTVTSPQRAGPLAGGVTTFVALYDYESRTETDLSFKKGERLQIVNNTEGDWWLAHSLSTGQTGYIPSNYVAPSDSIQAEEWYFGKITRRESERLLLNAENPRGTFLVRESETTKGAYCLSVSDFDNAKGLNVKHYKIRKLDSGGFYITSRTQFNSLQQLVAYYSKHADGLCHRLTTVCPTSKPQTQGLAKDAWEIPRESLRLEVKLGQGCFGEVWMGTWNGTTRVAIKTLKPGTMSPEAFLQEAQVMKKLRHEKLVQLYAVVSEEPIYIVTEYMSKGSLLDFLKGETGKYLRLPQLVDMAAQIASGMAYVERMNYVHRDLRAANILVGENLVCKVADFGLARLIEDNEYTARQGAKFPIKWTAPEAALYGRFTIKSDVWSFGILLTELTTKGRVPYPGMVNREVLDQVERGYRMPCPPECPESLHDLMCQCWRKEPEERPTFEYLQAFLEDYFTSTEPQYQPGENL

COc1c(NC(=O)Nc2ccc(Oc3ccnc(Nc4ccccc4)c3)c3ccccc23)cc(C(C)(C)C)cc1[S+](C)[O-] (racemic) [Example 12, 1-(5-(tert-Butyl)-2-methoxy-3-(methylsulfinyl)phenyl)-3-(4-((2-(phenylamino)pyridin-4-yl)oxy)naphthalen-1-yl)urea]
IC50 (PBMCs [1]): 8.6 nM
IC50 [2]: 193 nM
IC50 (Syk): 656 nM
IC50 (GSK 3α): > 9900 nM
IC50 (c-Src): 201 nM
% β-catenin induction (d-U937 cells; test compound 1 μg/mL): −0.5%
% β-catenin induction (d-U937 cells; test compound 5 μg/mL): 5.0%
% β-catenin induction (d-U937 cells; test compound 10 μg/mL): 6.0%
IC50 (PBMCs [3]): 67 nM

COCCOCCOCCOc1cc(Nc2cc(Oc3ccc(NC(=O)Nc4cc(C(C)(C)C)cc(CS(C)(=O)=O)c4OC)c4ccccc34)ccn2)cc(OC)c1 [15(a), 1-(5-(tert-butyl)-2-methoxy-3-((methylsulfonyl)methyl)phenyl)-3-(4-((2-((3-methoxy-5-(2-(2-(2-methoxyethoxy)ethoxy)ethoxy)phenyl)amino)pyridin-4-yl)oxy)naphthalen-1-yl)urea]
IC50 (PBMCs [1]): 27.2 nM
IC50 [2]: 177 nM
IC50 (Syk): 134 nM
IC50 (GSK 3α): > 12200 nM
IC50 (c-Src): 28 nM
% β-catenin induction (d-U937 cells; test compound 1 μg/mL): −4.0%
% β-catenin induction (d-U937 cells; test compound 5 μg/mL): −5.0%
% β-catenin induction (d-U937 cells; test compound 10 μg/mL): −3.0%
IC50 (PBMCs [3]): 43.2 nM

COc1c(NC(=O)Nc2ccc(Oc3ccnc(Nc4cccnc4)c3)c3ccccc23)cc(C(C)(C)C)cc1P(C)(C)=O [15(ad), 1-(5-(tert-butyl)-3-(dimethylphosphoryl)-2-methoxyphenyl)-3-(4-((2-(pyridin-3-ylamino)pyridin-4-yl)oxy)naphthalen-1-yl)urea]
IC50 (PBMCs [1]): 16.2 nM
IC50 [2]: 181 nM
IC50 (Syk): 1000 nM
IC50 (GSK 3α): 1600 nM
IC50 (c-Src): 129 nM
% β-catenin induction (d-U937 cells; test compound 1 μg/mL): 12.0%
% β-catenin induction (d-U937 cells; test compound 5 μg/mL): 36.0%
% β-catenin induction (d-U937 cells; test compound 10 μg/mL): 49.0%
IC50 (PBMCs [3]): 1110 nM

COc1cc(F)cc(Nc2cc(Oc3ccc(NC(=O)Nc4cc(C(C)(C)C)cc(P(C)(C)=O)c4OC)c4ccccc34)ccn2)c1 [15(an), 1-(5-(tert-butyl)-3-(dimethylphosphoryl)-2-methoxyphenyl)-3-(4-((2-((3-fluoro-5-methoxyphenyl)amino)pyridin-4-yl)oxy)naphthalen-1-yl)urea]
IC50 (PBMCs [1]): 6.2 nM
IC50 [2]: 344 nM
IC50 (Syk): 712 nM
IC50 (GSK 3α): > 15200 nM
IC50 (c-Src): 116 nM
% β-catenin induction (d-U937 cells; test compound 1 μg/mL): 1.5%
% β-catenin induction (d-U937 cells; test compound 5 μg/mL): 11.5%
% β-catenin induction (d-U937 cells; test compound 10 μg/mL): 13.5%
IC50 (PBMCs [3]): 251 nM

COc1c(NC(=O)Nc2ccc(Oc3ccnc(Nc4cnn(C)n4)n3)c3ccccc23)cc(C(C)(C)C)cc1P(C)(C)=O [15(x), 1-(5-(tert-butyl)-3-(dimethylphosphoryl)-2-methoxyphenyl)-3-(4-((2-((2-methyl-2H-1,2,3-triazol-4-yl)amino)pyrimidin-4-yl)oxy)naphthalen-1-yl)urea]
IC50 (PBMCs [1]): 35.9 nM
IC50 [2]: 219 nM
IC50 (Syk): > 1630 nM
IC50 (GSK 3α): 4660 nM
IC50 (c-Src): 356 nM
% β-catenin induction (d-U937 cells; test compound 1 μg/mL): 7.0%
% β-catenin induction (d-U937 cells; test compound 5 μg/mL): 4.0%
% β-catenin induction (d-U937 cells; test compound 10 μg/mL): 4.0%
IC50 (PBMCs [3]): 624 nM

COc1c(CC(N)=O)cc(C(C)(C)C)cc1NC(=O)Nc1ccc(Oc2ccnc(NCc3ccccn3)c2)c2ccccc12 [38(d), 2-(5-(tert-Butyl)-2-methoxy-3-(3-(4-((2-((pyridin-2-ylmethyl)amino)pyridin-4-yl)oxy)naphthalen-1-yl)ureido)phenyl)acetamide]
IC50 (PBMCs [1]): 106 nM
IC50 [2]: 13 nM
IC50 (Syk): > 1650 nM
IC50 (GSK 3α): 2240 nM
IC50 (c-Src): > 1570 nM
% β-catenin induction (d-U937 cells; test compound 1 μg/mL): 2.5%
% β-catenin induction (d-U937 cells; test compound 5 μg/mL): 19.5%
% β-catenin induction (d-U937 cells; test compound 10 μg/mL): 30.0%
IC50 (PBMCs [3]): 1650 nM

COc1c(CC(N)=O)cc(C(C)(C)C)cc1NC(=O)Nc1ccc(Oc2ccnc(Nc3cc(C)cc(C)c3)c2)c2ccccc12 [38(f), 2-(5-(tert-Butyl)-3-(3-(4-((2-((3,5-dimethylphenyl)amino)pyridin-4-yl)oxy)naphthalen-1-yl)ureido)-2-methoxyphenyl)acetamide]
IC50 (PBMCs [1]): 16.5 nM
IC50 [2]: 226 nM
IC50 (Syk): 837 nM
IC50 (GSK 3α): 14800 nM
IC50 (c-Src): 69 nM
% β-catenin induction (d-U937 cells; test compound 1 μg/mL): 2.0%
% β-catenin induction (d-U937 cells; test compound 5 μg/mL): 3.3%
% β-catenin induction (d-U937 cells; test compound 10 μg/mL): 8.3%
IC50 (PBMCs [3]): 75.8 nM

CNC(=O)Cc1cc(C(C)(C)C)cc(NC(=O)Nc2ccc(Oc3ccnc(Nc4cccc(OC)c4)c3)c3ccccc23)c1OC [38(h), 2-(5-(tert-Butyl)-2-methoxy-3-(3-(4-((2-((3-methoxyphenyl)amino)pyridin-4-yl)oxy)naphthalen-1-yl)ureido)phenyl)-N-methylacetamide]
IC50 (PBMCs [1]): 17.7 nM
IC50 [2]: 123 nM
IC50 (Syk): 1080 nM
IC50 (GSK 3α): > 14600 nM
IC50 (c-Src): 181 nM
% β-catenin induction (d-U937 cells; test compound 1 μg/mL): 1.5%
% β-catenin induction (d-U937 cells; test compound 5 μg/mL): 4.0%
% β-catenin induction (d-U937 cells; test compound 10 μg/mL): 6.0%
IC50 (PBMCs [3]): 160 nM

COc1cc(Nc2cc(Oc3ccc(NC(=O)Nc4cc(C(C)(C)C)cc(CC(N)=O)c4OC)c4ccccc34)ccn2)ccn1 [38(k), 2-(5-(tert-Butyl)-2-methoxy-3-(3-(4-((2-((2-methoxypyridin-4-yl)amino)pyridin-4-yl)oxy)naphthalen-1-yl)ureido)phenyl)acetamide]
IC50 (PBMCs [1]): 14.6 nM
IC50 [2]: 152 nM
IC50 (Syk): > 1610 nM
IC50 (GSK 3α): 2620 nM
IC50 (c-Src): 166 nM
% β-catenin induction (d-U937 cells; test compound 1 μg/mL): 10.5%
% β-catenin induction (d-U937 cells; test compound 5 μg/mL): 39.5%
% β-catenin induction (d-U937 cells; test compound 10 μg/mL): 52.0%
IC50 (PBMCs [3]): 281 nM

COc1cc(CO)cc(Nc2cc(Oc3ccc(NC(=O)Nc4cc(C(C)(C)C)cc(CC(N)=O)c4OC)c4ccccc34)ccn2)c1 [38(m), 2-(5-(tert-Butyl)-3-(3-(4-((2-((3-(hydroxymethyl)-5-methoxyphenyl)amino)pyridin-4-yl)oxy)naphthalen-1-yl)ureido)-2-methoxyphenyl)acetamide]
IC50 (PBMCs [1]): 7 nM
IC50 [2]: 48 nM
IC50 (Syk): 364 nM
IC50 (GSK 3α): 3380 nM
IC50 (c-Src): 33 nM
% β-catenin induction (d-U937 cells; test compound 1 μg/mL): 3.0%
% β-catenin induction (d-U937 cells; test compound 5 μg/mL): 23.0%
% β-catenin induction (d-U937 cells; test compound 10 μg/mL): 37.0%
IC50 (PBMCs [3]): 93.8 nM

COCCOCCOCCOc1cc(Nc2nccc(Oc3ccc(NC(=O)Nc4cc(C(C)(C)C)cc(OCP(C)(C)=O)c4OC)c4ccccc34)n2)cc(OC)c1 [Example 6, 1-(5-(tert-Butyl)-3-((dimethylphosphoryl)methoxy)-2-methoxyphenyl)-3-(4-((2-((3-methoxy-5-(2-(2-(2-methoxyethoxy)ethoxy)ethoxy)phenyl)amino)pyrimidin-4-yl)oxy)naphthalen-1-yl)urea]
IC50 (PBMCs [1]): 15.5 nM
IC50 [2]: 211 nM
IC50 (Syk): 58 nM
IC50 (GSK 3α): 1200 nM
IC50 (c-Src): 16 nM
% β-catenin induction (d-U937 cells; test compound 1 μg/mL): 1.0%
% β-catenin induction (d-U937 cells; test compound 5 μg/mL): 29.0%
% β-catenin induction (d-U937 cells; test compound 10 μg/mL): 65.0%

COc1cc(Nc2cc(Oc3ccc(NC(=O)Nc4cc(C(C)(C)C)cc([S+](C)[O-])c4OC)c4ccccc34)ccn2)ccc1C(=O)NCCN1CCOCC1 (centres unmarked) [Example 72, 4-((4-((4-(3-(5-(tert-Butyl)-2-methoxy-3-(methylsulfinyl)phenyl)ureido)naphthalen-1-yl)oxy)pyridin-2-yl)amino)-2-methoxy-N-(2-morpholinoethyl)benzamide]
IC50 (PBMCs [1]): 7.5 nM
IC50 [2]: 32 nM
IC50 (Syk): 98 nM
IC50 (GSK 3α): 3660 nM
IC50 (c-Src): 20 nM
IC50 (PBMCs [3]): 156 nM

COc1cc(Nc2cc(Oc3ccc(NC(=O)Nc4cc(C(C)(C)C)cc(CC(N)=O)c4OC)c4ccccc34)ccn2)ccc1C(=O)NCC(CO)(CO)CO [Example 73, 4-((4-((4-(3-(3-(2-Amino-2-oxoethyl)-5-(tert-butyl)-2-methoxyphenyl)ureido)naphthalen-1-yl)oxy)pyridin-2-yl)amino)-N-(3-hydroxy-2,2-bis(hydroxymethyl)propyl)-2-methoxybenzamide]
IC50 (PBMCs [1]): 6.3 nM
IC50 [2]: 31 nM
IC50 (Syk): 120 nM
IC50 (GSK 3α): 1980 nM
IC50 (c-Src): 29 nM
IC50 (PBMCs [3]): 60.1 nM

COCCOCCOCCNC(=O)c1cc(Nc2cc(Oc3ccc(NC(=O)Nc4cc(C(C)(C)C)cc(CNC(=O)CN(C)C)c4OC)c4ccccc34)ccn2)cc(OC)c1 [Example 77, 3-((4-((4-(3-(5-(tert-Butyl)-3-((2-(dimethylamino)acetamido)methyl)-2-methoxyphenyl)ureido)naphthalen-1-yl)oxy)pyridin-2-yl)amino)-5-methoxy-N-(2-(2-(2-methoxyethoxy)ethoxy)ethyl)benzamide]
IC50 (PBMCs [1]): 2.3 nM
IC50 [2]: 20 nM
IC50 (Syk): 51 nM
IC50 (GSK 3α): 2620 nM
IC50 (c-Src): 17 nM
IC50 (PBMCs [3]): 18.9 nM
